Measured values from ChEMBL document CHEMBL2176951, “Molecular mechanisms of acquired proteasome inhibitor resistance” (J Med Chem, 2012).

Columns and labels:
[1] = target: T1, Proteasome Macropain subunit MB1 (Homo sapiens, UniProt P28074); assay: Reversible inhibition of human erythrocyte derived 20S proteasome subunit beta5 after 30 mins by fluorogenic assay
T1 sequence (P28074 whole entry): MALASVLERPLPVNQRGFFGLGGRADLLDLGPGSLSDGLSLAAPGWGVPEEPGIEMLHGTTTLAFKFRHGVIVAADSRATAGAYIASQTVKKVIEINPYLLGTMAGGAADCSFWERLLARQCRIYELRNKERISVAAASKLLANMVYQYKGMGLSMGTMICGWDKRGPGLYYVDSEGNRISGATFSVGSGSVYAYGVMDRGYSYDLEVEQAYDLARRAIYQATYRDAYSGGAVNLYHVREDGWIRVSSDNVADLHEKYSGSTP

[2] = target: T2, Proteasome component C5 (Homo sapiens) (UniProt P20618); assay: Ratio of Kinact to Ki for human 20S proteasome subunit beta1
T2 sequence (whole entry): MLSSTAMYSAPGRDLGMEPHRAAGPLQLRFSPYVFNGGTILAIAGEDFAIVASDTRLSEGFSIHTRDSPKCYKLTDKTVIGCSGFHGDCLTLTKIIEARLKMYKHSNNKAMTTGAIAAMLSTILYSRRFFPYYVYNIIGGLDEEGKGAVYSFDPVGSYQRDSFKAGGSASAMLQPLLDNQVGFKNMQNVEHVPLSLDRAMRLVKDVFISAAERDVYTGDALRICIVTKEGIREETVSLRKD

RPMI-8226 [3] = assay: Resistance factor, ratio of IC50 for 100 nM bortezonib-resistant human RPMI8226 cells harboring proteosome subunit beta5 A49T mutant to IC50 for wild type human RPMI8226 cells; type: functional
[4] = target: Proteasome Macropain subunit (Homo sapiens) (UniProt P49721); assay: Ratio of Kinact to Ki for human 20S proteasome subunit beta2
Chain of Proteasome Macropain subunit (Homo sapiens) (P49721 whole entry): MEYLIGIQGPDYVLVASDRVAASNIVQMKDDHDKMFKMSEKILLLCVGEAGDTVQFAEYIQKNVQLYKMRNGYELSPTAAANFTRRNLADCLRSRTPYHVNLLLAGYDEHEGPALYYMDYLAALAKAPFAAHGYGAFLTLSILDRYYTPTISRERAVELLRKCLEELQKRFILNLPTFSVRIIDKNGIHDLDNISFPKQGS

Homo sapiens = species: Homo sapiens; assay: P-gp-mediated drug resistance in human CEM/VLB cells relative to control; type: cell-based
[5] = target: T3, Proteasome Macropain subunit MB1 (Homo sapiens) (UniProt P28074); assay: Ratio of Kinact to Ki for human 20S proteasome subunit beta5
T3 sequence (whole entry): T1 sequence (P28074 whole entry)

THP-1 [6] = assay: Effect on 20S proteasome subunit beta5 expression in human THP1 cells at 50 nM relative to control; type: functional
SW1573 = assay: Effect on 20S proteasome subunit beta5 expression in human SW1573 cells at 150 nM relative to control; type: functional; details: pooled result: one value given for 7 cell lines, strains, targets or settings
[7] = Effect on PSMB5 mRNA expression in human Jurkat-B cells expressing PSMB5 G322A mutant at 1000 nM relative to control; type: functional
RPMI-8226 [8] = assay: Effect on PSMB5 mRNA expression in human RPMI8226 cells at 100 nM relative to control; type: functional
THP-1 [9] = assay: Effect on PSMB5 mRNA expression in human THP1 cells at 100 nM relative to control; type: functional
THP-1 [10] = assay: Effect on 20S proteasome subunit beta5 expression in human THP1 cells at 30 nM relative to control; type: functional
HT-29 [11] = assay: Effect on 20S proteasome subunit beta5 expression in human HT-29 cells at 100 nM relative to control; type: functional
THP-1 [12] = assay: Effect on 20S proteasome subunit beta5 expression in human THP1 cells at 200 nM relative to control; type: functional
THP-1 [13] = assay: Effect on 20S proteasome subunit beta5 expression in human THP1 cells at 100 nM relative to control; type: functional
HT-29 [14] = assay: Effect on 20S proteasome subunit beta5 expression in human HT-29 cells at 200 nM relative to control; type: functional
[15] = Effect on PSMB5 mRNA expression in human Jurkat-B cells expressing PSMB5 C323T mutant at 1000 nM relative to control; type: functional
THP-1 [16] = assay: Effect on PSMB5 mRNA expression in human THP1 cells at 200 nM relative to control; type: functional
RPMI-8226 [17] = assay: Effect on PSMB5 mRNA expression in human RPMI8226 cells at 7 nM relative to control; type: functional
THP-1 [18] = assay: Effect on PSMB5 mRNA expression in human THP1 cells at 50 nM relative to control; type: functional
THP-1 [19] = assay: Effect on PSMB5 mRNA expression in human THP1 cells at 30 nM relative to control; type: functional

In the case of `CC(C)C[C@H](NC(=O)[C@@H](NC(=O)c1cccc(-c2ccccc2)n1)[C@@H](C)O)B(O)O` [DELANZOMIB], the IC50 [1] is reported as 3.5 nM.

For `CC(C)C[C@H](NC(=O)[C@H](CCc1ccccc1)NC(=O)CN1CCOCC1)C(=O)N[C@@H](Cc1ccccc1)C(=O)N[C@@H](CC(C)C)C(=O)[C@@]1(C)CO1` [CARFILZOMIB], the Ratio [2] was < 100 M⁻¹ s⁻¹, the “Ratio IC50” value (RPMI-8226 [3]) was 9.7 and the Ratio [4] was < 100 M⁻¹ s⁻¹. The fold change (FC) (Homo sapiens) was 114 and the Ratio [5] was 33000 M⁻¹ s⁻¹.

In the case of `CC(C)C[C@H](NC(=O)[C@H](Cc1ccccc1)NC(=O)c1cnccn1)B(O)O` [BORTEZOMIB], the “fold change (FC)” value (THP-1 [6]) is reported as 60, the “fold change (FC)” value (SW1573) is reported as 1.3 and the “fold change (FC)” value [7] is reported as 1.7. For the same compound, the “fold change (FC)” value (RPMI-8226 [8]) was 15, the “fold change (FC)” value (THP-1 [9]) was 0.6 and the “fold change (FC)” value (THP-1 [10]) was 60. For the same compound, the “fold change (FC)” value (HT-29 [11]) was 3, the “fold change (FC)” value (THP-1 [12]) was 60 and the “fold change (FC)” value (THP-1 [13]) was 60. The “fold change (FC)” value (HT-29 [14]) was 3, the “fold change (FC)” value [15] was 0.9 and the “fold change (FC)” value (THP-1 [16]) was 0.9. For the same compound, the “fold change (FC)” value (RPMI-8226 [17]) was 5, the “fold change (FC)” value (THP-1 [18]) was 0.5 and the “fold change (FC)” value (THP-1 [19]) was 0.4.

In the case of `COC[C@H](NC(=O)c1cnc(C)s1)C(=O)N[C@@H](COC)C(=O)N[C@@H](Cc1ccccc1)C(=O)[C@@]1(C)CO1`, the fold change (FC) (Homo sapiens) is reported as 23.
